In patent US20210285004A1, “Bidirectional Constitutive Promoter and Uses, and Transfection Methods for B. Microti” (MJKS Research LLC, priority 2020, published 2021):

Tests used:
B. microti [1] = assay: Promoter strength comparison by reporter gene analysis (RLU, luminometer); format: cell-based, Babesia microti; conditions: reporter gene construct, FIG. 5
Experimental: In FIG. 5, the improved strength of the Babesia promoter (here: B. microti or “BM”) compared to a strong constitutive promoter (here: PBANKA DHFR of SEQ ID NO:2) is shown.
The strength of a Babesia-based promoter (for example, without limitation, the BM-CTQ41297 promoter of SEQ ID NO:1) and that of a strong constitutive promoter (here: PBANKA DHFR, SEQ ID NO:2) are determined and compared, representative results are shown in FIG. 5. A promoter (SEQ ID NO:1, from B. microti or “BM”) is compared to PBANKA-DHFR (known to be a strong constitutive promoter), a blank/negative control, and, as a further negative control, human EF1b promoter. The promoter constructs are prepared as described in examples 1 and 4, respectively. Relative Light Units (RLU) are measured by luminometer. […] Similarly the constitutive promoter human EF1b is outperformed by a Babesia-based promoter, including e.g. by the B. microti promoter (as shown in FIG. 5). As determined by reporter gene analysis, the Babesia promoter is at least about 5 to 6 times stronger compared to PBANKA-DHFR (a promoter derived from a rodent malaria parasite Plasmodium berghei with strong constitutive activity commonly used for the expression of reporter genes in various apicomplexan parasites), see results shown in FIG. 5.

B. microti [2] = assay: Transient transfection of B. microti with promoter constructs, reporter expression by fluorescence microscopy; format: cell-based, Babesia microti; conditions: two days after transfection, infected RBC from C57BL/6J mice
Experimental: A transfection of parasites with a parasite promoter (here: B. microti & SEQ ID NO:1) is performed as follows. A schematic representation of the genomic location of the B. microti promoter of SEQ ID NO:1 (BM-CTQ41297 promoter) is shown in FIG. 1a. As shown in the figure, the promoter is flanked by the two different genes. The episomal constructs may be based on a standard cloning vector such as Bluescript (pBSK (+)) and modified for expression accordingly; the constructs used are shown schematically in FIG. 1b. As a negative control (B), B. microti parasites transfected with a blank vector without reporter gene insert (but with BM-CTQ41297 promoter and 3′UTR, compare SEQ ID NO: 35). […] Electroporation for both genes is performed as follows. […]
After electroporation, the parasites are immediately injected into C57BL/6J mice and after two days of transfection analyzed by fluorescence microscopy as follows: a drop of blood is collected in a 1.5 ml tube containing heparin from the tail of mice infected with transfected parasites. […] The transfected parasites are analyzed by fluorescence microscopy to check if transfected parasites express the reporter gene (here: GFP) using a fluorescence microscope, e.g. Axio Imager M2®, Zeiss®, Dublin, Calif.). The transfected parasites are reporter gene (e.g. here: GFP) positive as confirmed by fluorescence microscopy and shown in FIG. 1c, see C. […]

In the case of “PBANKA-DHFR: Strong constitutive DHFR promoter from Plasmodium berghei, SEQ ID NO:2, 2262 bp [reference compound]”, the “RLU (Relative Light Unit) values” (B. microti [1]) is reported as “about 60 RLU” and the “reporter gene expression (GFP/mCherry fluorescence)” value (B. microti [2]) is reported as “expression of GFP”.
